Like-named read-outs stand apart in the source and are kept apart here.
Legend:
[1] = Liver microsomal metabolism in vitro, rat LM clearance; type: in vitro ADME; conditions: rat liver microsomes in vitro
Procedure: In addition, the LC-MS/MS method was used to determine the substrate metabolites of 5 major subtypes of human liver microsomal CYP450 enzymes (including CYP1A2, CYP2D6, CYP2C8, CYP2C9, and CYP3A4). The substrate method was used to determine the activity of human liver microsomal CYP450 enzyme. The established incubation system was verified using known inhibitors to investigate the inhibitory effect of the compound on CYP450 enzyme. For the enzyme induction test, a primary cultured human hepatocyte incubation system was used. 3-methylcholanthrene, phenobarbital, and rifampicin were used as positive control inducers of CYP1A2, CYP2B6, and CYP3A4, and phenacetin, bupropion, and testosterone were used as the substrate for CYP1A2, CYP2B6, and CYP3A4. The CYP450 enzyme activity was calculated by measuring the generation rate of 3 specific substrate metabolites in the incubation solution. Meanwhile, the total RNA was extracted from the human hepatocytes after incubation, and the real-time fluorescence quantitative PCR method was used to determine the mRNA expression level of CYP1A2, […], and CYP3A4. The enzyme activity and mRNA transcription level were used as endpoints to investigate the inductive effect of the compound on human liver P450 isoenzymes CYP1A2, […], and CYP3A4. The liver microsomal metabolism parameters in vitro are shown in Table 2B3 taking Compound 8 as an example.

[2] = system: mouse model of ragweed pollen-induced allergic conjunctivitis; assay: Mouse model of ragweed pollen-induced allergic conjunctivitis; type: in vivo, Balb/c mice; conditions: for Clinical symptom score: twice a day for 14 days, Day 14 within 30 minutes after final challenge
Procedure: SPF-grade Balb/c mice (half male and half female, 6-8 weeks old) were used as experimental animals. On Day 0 and Day 6, ragweed pollen footpad injection was injected subcutaneously into the footpads of mice for sensitization (65 μl per mouse). On Days 10-14, in the model group, eye drop of ragweed pollen was applied to both eyes of the mice (10 μl per mouse) once a day. The eye drops were applied for 5 consecutive days to trigger local allergic conjunctivitis (Wu B, et al., Frontiers in Immunology, 2021, 12:4754). […] On Day 14, within 30 minutes after the final challenge, the ocular clinical symptoms of the mice were observed under a microscope and scored according to the scoring criteria reported by Magone et al. (MerayoLloves J, et al., J Allergy Clin Immunol (1996) 97(5):1129-40; Magone M T, et al., Clin Immunol Immunopathol (1998) 87(1):75-84), the allergic response of the eyes were observed, including 4 indexes: conjunctival edema, conjunctival congestion, eyelid congestion and edema, and tearing. The scores were recorded as 0-3 points according to the severity (including none, mild, moderate and severe). The left eye of the mouse was taken with the eyelid (keeping the conjunctiva intact), fixed with polyformaldehyde, sectioned in paraffin, Hematoxylin-Eosin stained (HE stained), and toluidine blue stained (for detection of mast cells). Photographs were taken to analyze the inflammatory cell infiltration of the conjunctival tissue, and observe whether the mast cells in the conjunctiva aggregated and whether a phenomenon of degranulation occurred. The expression of allergic indicators IL-4 and IgE in the conjunctival tissue was detected by immunohistochemistry.
The mouse eye, including the eyelids (with intact conjunctiva), was sectioned after deparaffinization, and subjected to antigen retrieval and serum blocking.
Diluted IL-4 or IgE antibodies were added and incubated overnight. After incubation with secondary antibodies, DAB staining was performed, followed by counterstaining with hematoxylin. The slides were then mounted and observed under an […], with photographs taken. Semi-quantitative analysis was conducted using Image-J software. Based on the cumulative optical density and regional area values of each image, the average optical density was calculated to detect the positive expression of IL-4 or IgE.

[3] = Drug concentration in rat retinas after intraocular injection (HPLC); type: in vivo, Wistar rats; conditions: retina
Source text: 1.1 Experimental aminals: SPF-grade male Wistar rats weighed 180-220 g.
1.2 Drugs and reagents: Compound 71; sodium chloride injection (Shandong Qidu Pharmaceutical Co., Ltd., Batch No.: 3B151014124); acetonitrile (chromatographically pure, TEDIA, USA); methanol (chromatographically pure, SIGMA-ALDRICH product); triethylamine (analytically pure, Hangzhou Gaojing Fine Chemical Co., Ltd.).
1.3 Experimental grouping and administration: according to the sampling time, 33 male Wistar rats were divided into 11 groups (three rats per group) of: (1) control group; (2) 0 h; (3) 2 h; (4) 6 h; (5) 24 h; (6) 48 h; (7) 72 h; (8) 5 d; (9) 7 d; (10) 10 d; (11) 14 d. Three rats in the control group were injected with solvent (sterile normal saline) intraocularly, and the remaining 30 rats were injected with Compound 71 intraocularly at a concentration of 0.5% by using a 5 μL microinjector, and 5 μL of drug was injected per bulbus oculi.
1.4 Sampling and detection index: The retina of the rat in the control group was taken on Day 14 (14 d), and the retina of the remaining 30 rats was taken at the corresponding time points. The retina were frozen in liquid nitrogen, and then subjected to the subsequent HPLC detection.
1.5.1 Chromatographic conditions: The mobile phase was chromatographic grade acetonitrile-water=25-75 (v/v). The flow rate was 0.5 mL/min. The column temperature was 25° C. The UV detection wavelength was 254 nm. The injection volume was 20 μL.
1.5.2 Sample processing and preparation: the sample of the rat retina was taken out from the ultra-low temperature (−80° C.) refrigerator, accurately weighed and placed in a glass homogenizer, and ethyl acetate as an organic solvent pre-cooled in a 4° C. refrigerator was added at a ratio of 100 mL/g. The homogenizer was placed in an ice bath for homogenization. After homogenization, all the homogenate was poured into a 5 mL stoppered centrifuge tube. The centrifugation was performed at a low temperature of 4° C. for 5 min (5000 r/min). All the organic phase as the upper layer was accurately taken out and placed in a glass tube with conical bottom. The remaining residue of retina was extracted with 2 mL ethyl acetate repeatedly once. After centrifugation, the two organic phases were combined. Then, the centrifuge tube with conical bottom was blowed for dryness in a nitrogen flow in a 45° C. water bath. The residue was redissolved with 0.1 mL of chromatographic methanol, vortex mixed for 1 min, and centrifuged for 5 min at a high speed of 18000 r/min. 20 μL of the supernatant was taken, and analyzed in a high-performance liquid chromatography system.
1.5.3 Sample determination: After intraocular injection of 5 μL of 0.5% Compound 71, the retina was taken at different time points to analyze the drug content of the test compound in the retina.
1.5.4 Experimental results and conclusions: According to the retinal drug concentration-time curve, it is in conformity to the non-absorption two-compartment model. According to the pharmacokinetic non-absorption two-compartment model theory, the pharmacokinetic parameters of the drug were calculated.

[4] = immunohistochemistry, 2% eye drop
[5] = intraocular injection of 5 μL of 0.5% per eye, two-compartment model

Row | Rat LM clearance [1] [mL/min/kg] | concentration at 14 d ([3]; male, Wistar, rat, other: intraocular injection, 5 μL of 0.5% solution per eye, Day 14 after intraocular injection of 0.5% (5 μL per eye), read-out: retinal concentration) [nM] | half-life ([3]; male, Wistar, rat, topical or ocular, 5 μL of 0.5% solution per eye, intraocular injection of 5 μL of 0.5% per eye, two-compartment model, read-out: Distribution half-life (converted)) [h] | half-life ([3]; male, Wistar, rat, topical or ocular, 5 μL of 0.5% solution per eye, intraocular injection of 5 μL of 0.5% per eye, two-compartment model, read-out: Elimination half-life (converted)) [h] | AUC ([3]; male, Wistar, rat, topical or ocular, 5 μL of 0.5% solution per eye, intraocular injection of 5 μL of 0.5% per eye, two-compartment model, read-out: Area under the time curve AUC) [µg·h/mL] | Apparent distribution volume [3, 5] [L] | Total clearance CLT [3, 5] [L/h] | Structure (SMILES) | inflammatory cell infiltration of conjunctival tissue (HE staining; in words) ([2]; 0.5% eye drop) | mast cell degranulation (toluidine blue staining; in words) ([2]; 0.5% eye drop) | Clinical symptom score ([2]; 0.5% eye drop) | inflammatory cell infiltration of conjunctival tissue (HE staining; in words) ([2]; 2% eye drop) | mast cell degranulation (toluidine blue staining; in words) ([2]; 2% eye drop) | Clinical symptom score ([2]; 2% eye drop) | expression of IgE in ocular tissue (average optical density) ([2]; immunohistochemistry, 0.5% eye drop) | expression of IL-4 in ocular tissue (average optical density) [2, 4] | expression of IgE in ocular tissue (average optical density) [2, 4]
1 | 9.83 | – | – | – | – | – | – | CCOc1ccc(-c2c(F)cc(NC(=O)N3CCC(C(C)(C)C)CC3)cc2-c2nn[nH]n2)cn1 [Compound 8, 4-(tert-butyl)-N-(4-(6-ethoxypyrid-3-yl)-3-fluoro-5-(2H-tetrazol-5-yl)phenyl)piperidine-1-carboxamide] | inflammatory cell infiltration was still visible | a few samples showed manifest mast cell degranulation | 3.67 ± 0.36 | an improvement in inflammatory cell infiltration | no mast cell degranulation was observed | 1.75 ± 0.22^♦ | 0.72±0.12 | 0.24±0.06 | 0.54±0.06
2 | – | 1240 | 6.97 | 408 | 901 | 0.001676 | 5.55e-05 | CCOc1ccc(-c2ccc(NC(=O)N[C@H]3CC[C@H](C)CC3)cc2-c2nn[nH]n2)cn1 [Compound 71, 1-(4-(6-ethoxypyrid-3-yl)-3-(2H-tetrazol-5-yl)phenyl)-3-((trans)-4-methylcyclohexyl)urea] | – | – | – | – | – | – | – | – | –

Source: patent US20250353835A1, “N-TETRAZOLYL ARYL UREA-BASED DERIVATIVES, PREPARATION METHOD THEREFOR, AND USE THEREOF” (Hangzhou Yirui Pharmaceutical Technology Co., Ltd, priority 2022, published 2025)
